“Also recorded” adds a separate entry of the source.

In general, EC50 refers to the concentration giving half of the maximal effect.

For one data set, the system named is cells. Put plainly: AP1903 amount needed in vitro for effective signaling of cells. Type of data set: cell-based. As for the experimental part:
This equates to 16-160 μg/L or […] (1.6-160 μg/kg).

The next data set deals with human CD3+CD19+ T cells. Put plainly: AP1903 dose-dependent elimination in vivo of iCasp9-transduced T cells. On the set-up: species or system immune deficient mice (NSG). The conditions noted are these: mouse. The procedure: The Caspase-9 polypeptide has a dose-response curve in vivo, which could be used to eliminate a variable fraction of T cells expressing the Caspase-9 polypeptide.
T cells were transduced with SFG-iCasp9-D330E-2A-ΔCD19 retrovirus and injected i.v. into immune deficient mice (NSG). […] After an additional 24 hours, mice were sacrificed and lymphocytes from the spleen (A) were isolated and analyzed by flow cytometry for the frequency of human CD3^+CD19^+ T cells.

The subject of another data set is 293 cells. Put plainly: SEAP assay: FRB-tagged CAR plus iCaspase-9 in 293 cells. It counts as cell-based. To be noted: iCaspase-9. From the text: FIGS. 6A and 6B provide the results of an assay of two-tiered activation of apoptosis.
As a proof of principal, two tandem FRB, domains were fused to either a 1st generation Her2-CAR or to a 1st generation CD19-CAR co-expressing inducible Caspase-9. 293 cells were transiently transfected with a constitutive reporter plasmid, SRα-SEAP, along with normalized levels of expression plasmids encoding Her2-CAR-FRB2, iCaspase-9, Her2-CAR-FRBl2+iCasp9, iC9-CAR(19).FRBl2 (coexpressing both CD19-CAR-FRBl2 and iCaspase9), or control vector. […] After overnight incubation with drugs, SEAP activity was determined. […] This dose-dependent decrease required the presence of both the FRB-tagged CAR and the FKBP-tagged Caspase-9. […] Moreover, on- or off-target-mediated CAR clustering should increase the sensitivity of killing primarily at the site of scFv engagement.

For data set [1] the following is noted: cited from earlier work.
For data set [2], the system named is CD3+ΔCD19+ (iCasp9+) T cells. Put plainly: CASPALLO phase 1 clinical trial: AP1903 in patients with GvHD after iCasp9+ T cells. The conditions noted are these: human, in vivo.
Data set [3] deals with wt FRB (K2095 T2098 W2101) (Homo sapiens, UniProt P42345+P62942). The conditions noted are these: cited from earlier work.
The next data set deals with FRB-PLF (Homo sapiens, UniProt P42345+P62942, K2095P/T2098L/W2101F). To be noted: cited from earlier work.
Another data set has as its target FRBL (Homo sapiens, UniProt P42345+P62942, T2098L). Put plainly: Rapalog binding to mutant FRB (FRBL/KLW) versus wild-type FRB.
The subject of the next data set is NF-κB. The data set can be described thus: NF-κB SeAP reporter assay of inducible MyD88/CD40 activity. It counts as cell-based. A general note: A reporter such as luciferase makes a cellular process visible.
The test system of data set [4] is transduced T cells (human PBMCs). The data set can be described thus: IL-6 ELISA as indicator of MC activity in transduced T cells. It counts as cell-based. To be noted: pBP1440, 24 hours. Background: In an ELISA, binding on a coated surface is turned into a signal by an enzyme label.
The next data set has as its system transduced T cells. The data set can be described thus: T cell caspase assay (IncuCyte, caspase 3/7 green reagent). Type of data set: cell-based, human. The conditions noted are these: over 100 fold above the level used to activate MC-rap. As for the experimental part: To enable detection of apoptosis using the IncuCyte instrument, 2 μM of IncuCyte™ Kinetic Caspase-3/7 Apoptosis reagent (Essen Bioscience, 4440) were add to each well to reach a total volume of 200 μl. The plates were centrifuged for 5 min at 400×g and placed inside the IncuCyte (Dual Color Model 4459) to monitor green fluorescence every 2-3 hours for a total of 48 hours at 10× objective. Image analysis was performed using the “Tcells_caspreagent_phase_green_10×_MLD” processing definition. The “Total Green Object Integrated Intensity” metric is used to quantify caspase activation. Each condition was performed in duplicates and each well was imaged at 4 different locations.
To enable detection of apoptosis using the IncuCyte instrument, 2 μM of IncuCyte™ Kinetic Caspase-3/7 Apoptosis reagent (Essen Bioscience, 4440) was added to each well to reach a total volume of 200 μl. The plates were centrifuged for 5 min at 400×g and placed inside the IncuCyte (Dual Color Model 4459) to monitor green fluorescence every 2-3 hours for a total of 48 hours at 10× objective. Image analysis was performed using the “Tcells_caspreagent_phase_green_10×_MLD” processing definition. The “Total Green Object Integrated Intensity” metric and the “Phase Object Confluence (Percent)” were used to quantify caspase activation. Each condition was performed in duplicate and each well was imaged at 4 different locations.

In another data set the test system is HPAC PSCA+ tumor cells. Put plainly: T cell anti-tumor assay with HPAC-RFP cells (IncuCyte, ELISA). It counts as cell-based, human. To be noted: 2 nM, E:T 1:30. As for the experimental part: PBMCs from donor 920 were activated and co-transduced with GFP-Ffluc and iMC+CARζ-T (189), i9+CARζ+MC (873), or FwtFRBC9/MC.FvFv (1308)-encoding vectors. […] (A & B) Two days post-seeding, culture supernatants were analyzed for IL-2, IL-6, and IFN-γ production by ELISA. […] Numbers of HPAC-RFP and T cell-GFP at the E:T 1:2 ratio was analyzed using the basic analyzer software for the IncuCyte at day 7 (Ci) and day 8 with 0 nM suicide drug (Cii) and 10 nM suicide drug (Ciii). Similar analysis was also performed at the 1:5 E:T ratio (D). (Note: the y-axis in Ci and Di are at log-scale).
The HPAC PSCA^+ tumor cells were stably labeled with nuclear-localized RFP protein using the NucLight™ Red Lentivirus Reagent (Essen Bioscience, 4625). To set up the coculture, 4000 HPAC-RFP cells were seeded per well of 96-well plates in 100 μl of CTL medium without IL-2 for at least 4 hours to allow tumor cells to adhere. After transduction with the appropriate retrovirus and allowed to rest for at least 7 days in culture, T were seeded according to various E:T ratios to the HPAC-RFP-containing 96-well plates. […] Each plate was set up in duplicates, one plate to monitor with the IncuCyte cell imaging system and one plate for supernatant collection for ELISA assay on day 2. The plates were centrifuged for 5 min at 400×g and placed inside the IncuCyte (Essen Bioscience, Dual Color Model 4459) to monitor red fluorescence (and green fluorescence if T cells were labeled with GFP-Ffluc) every 2-3 hours for a total of 7 days at 10× objective. Image analysis was performed using the “HPAC-RFP_TcellsGFP_10×_MLD” processing definition. On day 7, HPAC-RFP cells were analyzed using the “Red Object Count (1/well)” metric. […] On day 8, Tcell-GFP cells were analyzed using the “Total Green Object Integrated Intensity” metric. Each condition was performed at least in duplicates and each well was imaged at 4 different locations.

A further data set has as its system Raji-GFP cells. Put plainly: Raji-GFP coculture with CD19 CAR-T cells (flow cytometry). It counts as cell-based, human. To be noted: 2 nM, E:T 1:5, seven days.
Another data set has as its target FRB-KTF (Homo sapiens, UniProt P42345+P62942, W2101F). The conditions noted are these: cited from earlier work.
The test system of the next data set is HEK293T/16 cells. The data set can be described thus: Secreted alkaline phosphatase (SEAP)-based surrogate killing assay of iCasp9 mutants. It counts as cell-based, human. To be noted: for Basal Activity (relative to wild type/unmodified Caspase-9): SEAP assay without AP1903; for basal activity: relative SEAP activity Units: no AP1903.
The next data set has as its system primary T cells. The data set can be described thus: AP1903-dependent cytotoxicity in primary T cells transduced with iCasp9 variants. It counts as cell-based, human. As for the experimental part: The effects of various caspase polypeptides at mostly single copy in primary T cells was assayed. This may reflect more accurately how these suicide genes will be used therapeutically.
Primary T cells from healthy donors (n=6) were transduced with retrovirus encoding mutant or wild-type iCasp9 or iCasp9-D330A, and the ΔCD19 cell surface marker. Following transduction, iCasp9-transduced T cells were purified using CD19-microbeads and a magnetic column.

wt FRB (K2095 T2098 W2101), sequence (P42345 2012-2144 limits assumed): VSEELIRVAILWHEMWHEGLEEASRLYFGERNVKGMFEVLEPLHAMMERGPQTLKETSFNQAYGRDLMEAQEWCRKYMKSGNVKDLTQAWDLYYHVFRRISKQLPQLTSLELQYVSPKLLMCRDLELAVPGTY
wt FRB (K2095 T2098 W2101), sequence (P62942 2-108 limits assumed): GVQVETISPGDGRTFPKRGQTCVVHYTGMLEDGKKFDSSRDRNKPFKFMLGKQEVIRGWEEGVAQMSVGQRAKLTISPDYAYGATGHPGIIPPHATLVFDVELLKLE
FRBL, sequence (P42345 2012-2144 T2098L limits assumed): as the sequence (P42345 2012-2144 limits assumed) above, with T87L counted along it
FRBL, sequence (P62942 2-108 limits assumed): as the sequence (P62942 2-108 limits assumed) above
FRB-KTF, sequence (P42345 2012-2144 W2101F limits assumed): as the sequence (P42345 2012-2144 limits assumed) above, with W90F counted along it
FRB-KTF, sequence (P62942 2-108 limits assumed): as the sequence (P62942 2-108 limits assumed) above
FRB-PLF, sequence (P42345 2012-2144 K2095P/T2098L/W2101F): as the sequence (P42345 2012-2144 limits assumed) above, with K84P, T87L, W90F counted along it
FRB-PLF, sequence (P62942 2-108): as the sequence (P62942 2-108 limits assumed) above
Procedure for NF-κB: 293T cells were transfected with 1 μg of reporter construct NF-κB SeAP and 4 μg of the iMC+CARζ construct pBP0774 or the MC-rap-CAR construct pBP1440 using the GeneJuice protocol (Novagen). […] After 24 hours of further incubation SeAP activity was determined from cell supernatants.
HEK 293T cells (1.5×10^5) were seeded on a 100-mm tissue culture dish in 10 mL DMEM4500, supplemented with glutamine, penicillin/streptomycin and 10% fetal calf serum. After 16-30 hours incubation, cells were transfected using Novagen's GeneJuice® protocol. Briefly, for each transfection, 0.5 mL OptiMEM was pipetted into a 1.5-mL microcentrifuge tube and 15 μL GeneJuice reagent added followed by 5 sec. vortexing. Samples were rested 5 minutes to settle the GeneJuice suspension. DNA (5 μg total) was added to each tube and mixed by pipetting up and down four times. Samples were allowed to rest for 5 minutes for GeneJuice-DNA complex formation and the suspension added dropwise to one dish of 293T cells. A typical transfection contains 1 μg NFkB-SEAP (5), 4 μg iMC+CARζ(pBP0774) or 4 μg MC-Rap-CAR (pBP1440) (1).
24 hours following transfection (4.1), 293T cells were split to 96-well plates and incubated with dilutions of dimerizing drugs. Briefly, 100 μL media was added to each well of a 96-well flat-bottom plate. Drugs were diluted in tubes to a concentration 4× the top concentration in the gradient to be place on the plate. […] 100 μL from each drug-containing well was then transferred to the adjacent well and the cycle repeated 10 times to produce a serial two-fold step gradient. The last wells were untreated and serve as a control for basal reporter activity. Transfected 293 cells were then trypsinized, washed with complete media, suspended in media and 100 μL aliquoted to each well containing drug (or no drug). Cells were incubated 24 hours.
24 hours after drug stimulation, 96-well plates were wrapped to prevent evaporation and incubated at 65° C. for 2 hours to inactivate endogenous and serum phosphatases while the heat-stable SeAP reporter remains (3, 12, 14). 100 μL samples from each well were loaded into individual wells of a 96-well assay plate with black sides. Samples were incubated with 0.5 mM 4-methylumbelliferyl phosphate (4-MUP) in 0.5 M diethanolamine at pH 10.0 for 4 to 16 hours. Phosphatase activity was measured by fluorescence with excitation at 355 nm and emission at 460 nm. Data was transferred to a Microsoft Excel spreadsheet for tabulation and graphed with GraphPad Prism.
Procedure for Raji-GFP cells: After seven days of incubation the live cells were analyzed for the proportion of GFP labeled tumor cells (left) and for the proportion of total T cells (CD3^+, right) and transduced CAR-T cells (CD34, not shown).
Raji cells (ATCC) labeled by stable expression of Green Fluorescent Protein (Raji-GFP) are a Burkitt's lymphoma cell line that express CD19 on the cell surface and are a target for an anti-CD19 CAR. 50000 Raji-GFP cells were seeded on a 24 well plate with 10000 CAR-T cells, a 1:5 E:T ratio. Media supernatant was taken at 48 hours for determination of cytokine release by activated CAR-T cells. The degree of tumor killing was determined at 7 days and 14 days by flow cytometry (Galeos, Beckman-Coulter) by the proportion of GFP labeled tumor cells and CD3 labeled T cells.

For `CC[C@H](C(=O)N1CCCC[C@H]1C(=O)O[C@H](CCc1ccc(OC)c(OC)c1)c1cccc(OCC(=O)NCCNC(=O)COc2cccc([C@@H](CCc3ccc(OC)c(OC)c3)OC(=O)[C@@H]3CCCCN3C(=O)[C@@H](CC)c3cc(OC)c(OC)c(OC)c3)c2)c1)c1cc(OC)c(OC)c(OC)c1` (relative stereo) [AP1903, 2-Piperidinecarboxylic acid, 1-[(2S)-1-oxo-2-(3,4,5-trimethoxyphenyl)butyl]-, 1,2-ethanediylbis[imino(2-oxo-2,1-ethanediyl)oxy-3,1-phenylene[(1R)-3-(3,4-dimethoxyphenyl)propylidene]] ester, [2S-[1(R*),2R*[S*[S*[1(R*),2R*]]]]]-(9C1)], the “amount needed in vitro for effective signaling of cells” value in the data set on cells was 10 to 100 nM. For the same molecule, the “dose sufficient to eliminate most modified T cells in vivo” value with human CD3+CD19+ T cells turned out to be 0.5 mg/kg. Besides, in the data set on 293 cells, the “SEAP activity, % of normal levels” value is recorded as “about 20%”. Further, in data set [1] (0.01-1.0 mg/kg, listed as API 903), the “safety and tolerability in healthy volunteers” value is on record as “No significant adverse effects”. For the same molecule, in data set [1] (1 volunteer at 1.0 mg/kg), the “adverse event considered possibly related to AP1903” value is given as “vasodilatation”. In addition, in data set [1] (IV infusion over 2 hours), the “plasma level, % of maximal concentration at 2 hours post-dose” value is approximately 7% and the “plasma level, % of maximal concentration at 10 hours post-dose” value is listed as approximately 1%. The serious adverse events entry in data set [1] (Phase 1 study in volunteers) is “No serious adverse events”. The well-tolerated doses entry in data set [1] (Phase 1 study) is “up to 1 mg/kg”. In addition, in data set [2], the “further reduction of CD3+ΔCD19+ cells within 24 hours” value was “further log reduction”; the “time to resolution of skin and liver aGvHD” value is not above 24 h.

As to `CO[C@@H]1C[C@H](C[C@@H](C)[C@@H]2CC(=O)[C@H](C)/C=C(\C)[C@@H](O)[C@@H](OC)C(=O)[C@H](C)C[C@H](C)/C=C/C=C/C=C(\C)[C@H](OC(C)C)C[C@@H]3CC[C@@H](C)[C@@](O)(O3)C(=O)C(=O)N3CCCC[C@H]3C(=O)O2)CC[C@H]1O` [R-Isopropoxyrapamycin], the values for the EC50 (in data set [3]; at FRB-PLF) were approximately 300 nM and approximately 8.5 nM, respectively.

Consider C7-isobutyloxyrapamycin, for which, at FRBL, the “affinity for mutant FRB domain KLW” value is “subnanomolar affinity” and the “binds FRBL at concentrations lower than wild-type FRB in mTOR” value was 20 fold. Besides, the “EC50 / concentration stimulating NF-κB reporter activity via MC-Rap” value with NF-κB (MC-rap-CAR construct pBP1440) is on record as “subnanomolar”. Besides, the EC50 in the data set with NF-κB (iRMC (KLW, wild-type FKBP12, MyD88, CD40), read-out: EC50, NF-κB activity via iRMC) is less than 1 nM. For the same molecule, the “MC activity (secreted IL-6) in MC-rap-T cells” value in data set [4] was “strongly responsive”. Also, the “activation of apoptosis at high concentrations” value with transduced T cells is “insufficient to activate apoptosis”. The “tumor cell control by MC-rap containing CAR-T cells” value in the data set with HPAC PSCA+ tumor cells is “able to control tumor cells as effectively as rimiducid stimulated iMC”. The “CAR-T cells with FwtFRBC9/MC.FvFv” value in the data set on Raji-GFP cells is recorded as “cause cell death”.

On to “S-Butanesulfonamidorap [S-Butanesulfonamidorap (AP23050)]”, for which the EC50 in data set [3] was approximately 2.7 nM; at FRB-KTF, more than 200 nM.

B1: F404Y: modified iCasp9, F404Y (protein)
chain: VDGFGDVGALESLRGNADLAYILSMEPCGHCLIINNVNFCRESGLRTRTGSNIDCEKLRRRFSSLHFMVEVKGDLTAKKMVLALLELARQDHGALDCCVVVILSHGCQASHLQFPGAVYGTDGCPVSVEKIVNIFNGTSCPSLGGKPKLFFIQACGGEQKDHGFEVASTSPEDESPGSNPEPDATPFQEGLRTFDQLDAISSLPTPSDIFVSYSTFPGFVSWRDPKSGSWYVETLDDIFEQWAHSEDLQSLLLRVANAVSVKGIYKQMPGCYNFLRKKLFFKTSASRA
Turning to B1, the “Basal Activity (relative to wild type/unmodified Caspase-9)” value with HEK293T/16 cells is reported as “lowered basal activity; also recorded: Decreased”. For the same molecule, the “killing of target T cells within 10 days” value with primary T cells (AP1903 at day 0 and day 4) is given as “indistinguishable from wild type”.

B2: D330A: modified iCasp9, D330A (SEQ ID NO: 24) (protein)
chain: GFGDVGALESLRGNADLAYILSMEPCGHCLIINNVNFCRESGLRTRTGSNIDCEKLRRRFSSLHFMVEVKGDLTAKKMVLALLELARQDHGALDCCVVVILSHGCQASHLQFPGAVYGTDGCPVSVEKIVNIFNGTSCPSLGGKPKLFFIQACGGEQKDHGFEVASTSPEDESPGSNPEPDATPFQEGLRTFDQLAAISSLPTPSDIFVSYSTFPGFVSWRDPKSGSWYVETLDDIFEQWAHSEDLQSLLLRVANAVSVKGIYKQMPGCFNFLRKKLFFKTS
Take B2: the “basal activity: relative SEAP activity Units” value is reported as 148928 Units with HEK293T/16 cells (1 μg iCasp9 per million cells) and 136863 Units with HEK293T/16 cells (2 μg iCasp9 per million cells). Also, in the data set on HEK293T/16 cells, the “Basal Activity (relative to wild type/unmodified Caspase-9)” value is reported as “lowered basal signaling; also recorded: lowered basal activity; also recorded: less basal activity than wild type Caspase-9; also recorded: Decreased”. Besides, the “IC50 of AP1903 in transduced T cells versus wild-type iCasp9” value in the data set with primary T cells (AP1903 0-100 nM, 24 hours, 6 donors) is “significantly lower”. Also, the “sensitivity to AP1903 in primary T cells” value with primary T cells (mostly single copy, 24-hour assay) is “more sensitive to AP1903 at low titers; also recorded: more sensitive to AP1903 than the wild type”.

The values are drawn from patent US20230065562A1, “DUAL CONTROLS FOR THERAPEUTIC CELL ACTIVATION OR ELIMINATION” (Bellicum Pharmaceuticals, Inc., priority 2015, published 2023).
